Data reported in patent US20100273732A1, “COMBINATION METHODS OF TREATING CANCER” (priority 2003, published 2010).
Like-named read-outs stand apart in the source and are kept apart here.

Legend:
[1] = test system: T24 (bladder carcinoma) cells; assay: alamarBlue proliferation inhibition, drug combination experiments, T24; type: cell-based; conditions: Homo sapiens, 96 h, read-out: 50% inhibition Effective Dose, T24, 4 days
Experimental: (§1) Drug combination experiments were performed on five human cancer cell lines: T24 (bladder carcinoma), LnCap (prostate), MCF7 (breast), DLCL (non-Hodgkin's lymphoma) and LCC18 (colon carcinoid). Each cell line was cultured and incubated at 37° C. in its required medium: MEM a (10% FCS), RPMI 1640 (10% FCS), DME HG (10% FCS), enhanced RPMI (10% FCS), and Hites medium (5% FCS), respectively.
(§2) DLCL, a suspension cell line, was plated on 96 well plates on the same day of the experiment. For T24, LnCap, DLCL and LCC18, 200 μL containing 2000 cells were plated into each well. For MCF7, 4000 cells/well were plated to account for the line's slower cell cycle.
(§3) Cells that received no treatment served as a control group.
(§4) To administer treatment to adherent cell lines (T24, LnCap, MCF7), media in each well was aspirated and replaced with 200 μL of media containing desired concentration of drug or drugs. For all other cell lines ([…] and DLCL), 22 μL of media containing 10 times the desired concentration of drug or drugs was added to 200 μL of media in each well.
(§5) After treatment, cells were incubated at 37° C. for 4 days. On the fourth day, each well was treated with 20 μL of alamarBlur™, an aqueous dye, and incubated for 4 hours at 37° C. The reduction of this dye, when absorbed by cells, is greater in proliferating cells than in non-proliferating cells because of an increased concentration of NADPH, FADH, FMNH and NADH. The reduction was measured by fluorescence using a SpectaMax GeminiXS® spectrofluorometric microtiter well plate reader (Molecular Devices Corporation, Sunnyvale, Calif.). Data was expressed as fluorescence emission intensity units as a function of time of incubation and analyzed using SOFTmax PRO® v. 4.0 software (Molecular Devices Corp. Sunnyvale, Calif.). In order to assess the percent inhibition of cell growth four days after drug treatment, the following formula was used:
(§6) 100−(Mean Intensity Units/Well with Identical Treatment)*100(Mean Intensity Units/Well in Control Group)
(§7) The concentrations used for treatment with each drug are based on the dose that inhibits 50% of proliferation for each drug. The following concentrations were tested:
(§8) a) 50% effective dose/4; b) 50% effective dose/2; c) 50% effective dose; d) 50% effective dose*2; and e) 50% effective dose*4. […] A polynomial relationship was defined between drug concentration and percent inhibition using various concentrations, and this function was used to predict the concentration of each drug required to inhibit proliferation of 50% of the cells.
(§9) The following criteria were established for assessing additive, synergistic and antagonistic interactions: […]

[2] = test system: LnCap (prostate) cells; assay: alamarBlue proliferation inhibition, drug combination experiments, LnCap; type: cell-based; conditions: Homo sapiens, 96 h
Experimental: as §1, §2, §3, §4, §5, §6, §7, §8, §9

[3] = test system: LnCap cell line; assay: Cell proliferation and viability count, SAHA and gemcitabine, LnCap; type: cell-based, human; conditions: 2 nM gemcitabine, 5 μM SAHA or both, 72 hours
Experimental: Cells were plated at a density of 2.5×10^4 cells/ml in RMPI medium with 10% FCS, and were allowed to adhere to wells.
Gemcitabine was reconstituted in medium and the pH was adjusted to 7 using 1N NaOH. Concentrations of gemcitabine were prepared by serial dilution of gemcitabine in complete medium.
The cells were then cultured with medium containing the compound or combination of compounds.
(§10) To assay for proliferation and viability, triplicate samples of cells were harvested and counted for proliferation and viability at the indicated time points as described above in Example 2.

[4] = test system: carcinogen-induced (N-methylnitrosourea) mammary tumors; conditions: rats; SAHA in diet over 130 days; cited from earlier work
[5] = test system: T24 cell line; assay: Cell proliferation and viability count, SAHA and 5-azacytidine, T24; type: cell-based, human; conditions: 200 nM 5-azacytidine (27.5 h pre-incubation), 5 μM SAHA or both
Experimental: Cells were cultured in T-150 flasks at 37° C. in RPMI with 10% FCS. Cells were diluted in a complete medium to a density of 5.0×10^4 cells/ml. The cells were incubated at 37° C. for 14 hours before treatment with 5-azacytidine to allow cells to adhere to the wells.
Concentrations of 5-azacytidine were prepared by serial dilution of from a 1 mM stock. After 14-hour incubation in complete medium, wells were aspirated and the medium was replaced to 1 ml of 5-azacytidine at the indicated concentration.
as §10

[6] = in combination with SAHA 0.625 μM
[7] = in combination with SAHA 1.25 μM
[8] = in combination with SAHA 2.5 μM
[9] = in combination with SAHA 5.0 μM
[10] = in combination with SAHA 10.0 μM
[11] = read-out: 50% inhibition Effective Dose, LnCap, agent alone, 4 days
[12] = read-out: 50% inhibition Effective Dose, LnCap, in combination with SAHA 0.125 μM, 4 days
[13] = read-out: 50% inhibition Effective Dose, LnCap, in combination with SAHA 0.25 μM, 4 days
[14] = read-out: 50% inhibition Effective Dose, LnCap, in combination with SAHA 0.5 μM, 4 days
[15] = read-out: 50% inhibition Effective Dose, LnCap, in combination with SAHA 1.0 μM, 4 days
[16] = read-out: 50% inhibition Effective Dose, LnCap, in combination with SAHA 2.0 μM, 4 days

Row | IC50 ([1]; agent alone) | IC50 [1, 6] | IC50 [1, 7] | IC50 [1, 8] | IC50 [1, 9] | IC50 [1, 10] | IC50 [2, 11] | IC50 [2, 12] | IC50 [2, 13] | IC50 [2, 14] | IC50 [2, 15] | IC50 [2, 16] | Compound | Effect on cell proliferation (FIG. 2) [3] | Development and continued growth of mammary tumors [4] | Effect on cell proliferation (FIG. 3) [5]
1 | 5.1 nM | 4.1 nM | 2.8 nM | 1.9 nM | 1.4 nM | 0.28 nM | 5.1 nM | 5.1 nM | 4.1 nM | 3.8 nM | 1.9 nM | 1.9 nM | CCc1c2c(nc3ccc(OC(=O)N4CCC(N5CCCCC5)CC4)cc13)-c1cc3c(c(=O)n1C2)COC(=O)[C@]3(O)CC [Irinotecan] |  |  | 
2 | 14000 nM | 13100 nM | 11500 nM |  | 2700 nM | 1500 nM | 3000 nM | 5200 nM |  | 1600 nM | 1900 nM | 990 nM | O=c1[nH]cc(F)c(=O)[nH]1 [5-FU, 5-Fluorouracil] |  |  | 

The next lines start with the molecule.

Row | Compound | IC50 ([1]; agent alone) | IC50 [1, 6] | IC50 [1, 7] | IC50 [1, 8] | IC50 [1, 9] | IC50 [1, 10] | IC50 [2, 11] | IC50 [2, 12] | IC50 [2, 13] | IC50 [2, 14] | IC50 [2, 15] | IC50 [2, 16] | Effect on cell proliferation (FIG. 2) [3] | Development and continued growth of mammary tumors [4] | Effect on cell proliferation (FIG. 3) [5]
3 | Nc1ccn([C@@H]2O[C@H](CO)[C@@H](O)C2(F)F)c(=O)n1 [gemcitabine] |  |  |  |  |  |  |  |  |  |  |  |  | small effect |  | 
4 | CC(=O)O[C@@]12CO[C@@H]1C[C@H](O)[C@@]1(C)C(=O)[C@H](O)C3=C(C)[C@@H](OC(=O)[C@H](O)[C@@H](NC(=O)OC(C)(C)C)c4ccccc4)C[C@@](O)([C@@H](OC(=O)c4ccccc4)[C@H]21)C3(C)C [Docetaxel] | 2.1 nM | 0.51 nM | 0.72 nM | 0.59 nM | 0.29 nM | 0.05 nM | 2.1 nM | 1.2 nM | 1.2 nM | 0.6 nM | 0.34 nM | 0.12 nM |  |  | 
5 | O=C(CCCCCCC(=O)Nc1ccccc1)NO [SAHA, suberoylanilide hydroxamic acid] |  |  |  |  |  |  |  |  |  |  |  |  | significantly inhibited proliferation | effective at inhibiting the development and continued growth | significantly inhibited proliferation
6 | Nc1ncn([C@@H]2O[C@H](CO)[C@@H](O)[C@H]2O)c(=O)n1 [5-azacytidine] |  |  |  |  |  |  |  |  |  |  |  |  |  |  | significantly inhibited proliferation
